Assay: Inhibition of microtubule polymerisation in Rattus norvegicus (rat) A10 cells

Row | SMILES | EC50 [µM]
1 | COc1cc(OC)c(C2C=C(c3cc(OC)ccc3OC)NC(=S)N2)c(OC)c1 (configuration not stated) | 2.9
2 | COc1ccc(C2C=C(c3cc(OC)c(OC)c(OC)c3)NC(=S)N2)cc1O (configuration not stated) | 4.4
